Data published in patent publication US8507411B2, “Neoglycorandomization and digitoxin analogs” (priority 2004, dated 2013).
Read-outs that look alike come from different tables or passages of the source.

Key:
NCI-H460 = test: High-throughput calcein AM cytotoxicity assay, NCI-H460; type: cell-based, human; settings: NCI-H460 cells; read-out: IC50, NCI-H460
From the text: (§1) Standard errors are depicted with error bars.

NCI/ADR-RES = test: cells; type: cell-based, human; settings: NCI/ADR-RES cells; read-out: IC50, NCI/ADR-RES
From the text: (§2) In the assay, live cells were distinguished by the presence of a ubiquitous intracellular enzymatic activity which converts the non-fluorescent cell-permeable molecule calcein AM to the intensely fluorescent molecule calcein, which is retained within live cells. The IC50 value for each library member represents at least six replicates of dose-response experiments conducted over five concentrations using two-fold dilutions. […] Standard errors are depicted with error bars. Numerical values and corresponding error values can be found in Table 4. Du145: […]; MCF7: human breast carcinoma; HCT-116: human colon carcinoma, Hep3B: human liver carcinoma; SF-268: human CNS glioblastoma; SK-OV-3: human ovary adenocarcinoma; NCI-H460: human lung carcinoma; A549: human lung adenocarcinoma; NCI/ADR-RES: human breast carcinoma; NmuMG: mouse mammary normal epithelial.
(§3) Cell Culture: All cell lines except NmuMG were maintained in RPMI 1640 medium from InVitrogen (Cat No. 11875-085) supplemented with 10% w/v fetal bovine serum (FBS) from ICN (Cat No. 2916154) and penicillin-streptomycin (PS) (100 U/mL and 100 μg/mL) from InVitrogen (Cat No. 15140-122). NmuMG cells were maintained in DMEM medium from InVitrogen (Cat No. 11965-084) supplemented with 10% w/v fetal bovine serum (FBS) from ICN (Cat No. 2916154), 10 μg/ml insulin (InVitrogen Cat No 12585-014), and penicillin-streptomycin (PS) (100 U/mL and 100 μg/mL) from InVitrogen (Cat No. 15140-122). Cells were harvested by trypsinization using 0.25% w/v trypsin and 0.1% w/v EDTA from InVitrogen (Cat No. 15-050-057) and then counted in a hemocytometer in duplicate with better than 10% agreement in field counts. Cells were plated at a cell density of 10,000-15,000 cells/well of each Corning Costar 96-well black tissue culture treated microtiter plate (Fisher Cat No. 07-200-627). Cells were grown for 1 h at 37° C., with 5% CO2 in a humidified incubator to allow cell attachment to occur before compound addition.
(§4) Library Member Handling and Preparation for Cytotoxicity Assays: Library members were stored at −20° C. under dessicating conditions before the assay. Library member stocks (100×) were prepared in Corning Costar polypropylene 96-well V-bottom polypropylene microtiter plates (Fisher Cat No. 07-200-695). Five serial 1:2 dilutions were made with anhydrous DMSO at 100× the final concentration used in the assay.
(§5) Library Member Addition: The library member-containing plates were diluted 1:10 with complete cell culture media. The 10× stocks (10 μL) were added to the attached cells using a Biomek FX liquid handler (Beckman-Coulter). Library member stocks (10 μL) were added to 90 μL of cells in each plate to insure full mixing of stocks with culture media using a Beckman FX liquid handler with 96-well head.
(§6) Determination of Cytotoxicity: Cells were incubated with the library members for 72 h before fluorescence reading. Test plates were removed from the incubator and washed 1× in sterile PBS to remove serum containing calcium esterases. Calcein AM reagent (30 μL, […]) was added and the cells were incubated for 30 min at 37° C. Plates were read for emission using a fluorescein filter (excitation 485 nm, emission 535 nm).
(§7) IC50 Calculation: For each library member, at least six dose response experiments were conducted. […] To calculate IC50, percent inhibitions were plotted as a function of log [concentration] and then fit to a four-parameter logistic model that allowed for a variable Hill slope using XLfit 4.1.
(§8) Cytotoxicity Assays. All cell lines except NmuMG were maintained in RPMI 1640 medium supplemented with 10% w/v fetal bovine serum (FBS) and penicillin-streptomycin (PS) (100 U/mL and 100 μg/mL).

SF-268 = test: cells; type: cell-based, human; settings: SF-268 cells; read-out: IC50, SF-268
From the text: as §2, §3, §4, §5, §6, §7, §8

SK-OV-3 = test: cells; type: cell-based, human; settings: SK-OV-3 cells; read-out: IC50, SK-OV-3
From the text: as §2, §3, §4, §5, §6, §7, §8

Du145 = test: High-throughput calcein AM cytotoxicity assay, Du145; type: cell-based, human; settings: Du145 cells; read-out: IC50, Du145
From the text: as §1

NmuMG = test: cells; type: cell-based, mouse
From the text: as §2, §3, §4, §5, §6, §7, §8

HCT-116 = test: High-throughput calcein AM cytotoxicity assay, HCT-116; type: cell-based, human; settings: HCT-116 cells; read-out: IC50, HCT-116
From the text: as §1

Hep3B = test: High-throughput calcein AM cytotoxicity assay, Hep3B; type: cell-based, human; settings: Hep 3B cells; read-out: IC50, Hep 3B
From the text: as §1

A549 = test: High-throughput calcein AM cytotoxicity assay, A549; type: cell-based, human; settings: A549 cells; read-out: IC50, A549
From the text: as §1

MCF7 = test: High-throughput calcein AM cytotoxicity assay, MCF7; type: cell-based, human; settings: MCF7 cells; read-out: IC50, MCF7
From the text: as §1

[1] = NmuMG mouse mammary normal epithelial control line, read-out: IC50, NmuMG
[2] = NmuMG cells (mouse mammary normal epithelial control line), read-out: IC50

| Compound | IC50 (NCI-H460) | IC50 (NCI/ADR-RES) | IC50 (SF-268) | IC50 (SK-OV-3) | IC50 (Du145) | IC50 (NmuMG; [1]) | IC50 (HCT-116) | IC50 (Hep3B) | IC50 (A549) | IC50 (MCF7) | IC50 (NmuMG; [2]) |
| --- | --- | --- | --- | --- | --- | --- | --- | --- | --- | --- | --- |
| CON([C@H]1CC[C@@]2(C)[C@H](CC[C@@H]3[C@@H]2CC[C@]2(C)[C@@H](C4=CC(=O)OC4)CC[C@]32O)C1)[C@H]1O[C@@H](CO)[C@H](O)[C@H](O)[C@H]1O [19β, L-altroside] | 1.6 µM | 0.41 µM | 1.2 µM | 1 µM | 2.1 µM | 1 µM | 1.1 µM | 2 µM | 0.76 µM | 1.3 µM |  |
| CON(C1CCC2(C)C(CCC3C2CCC2(C)C(C4=CC(=O)OC4)CCC32O)C1)C1OC(CO)C(O)C(O)C1O [20α, D-altroside] | > 25 µM | > 25 µM | > 25 µM | > 25 µM | > 25 µM | > 25 µM | > 25 µM | > 25 µM | > 25 µM | > 25 µM |  |
| CON([C@H]1CC[C@@]2(C)[C@H](CC[C@@H]3[C@@H]2CC[C@]2(C)[C@@H](C4=CC(=O)OC4)CC[C@]32O)C1)[C@@H]1O[C@H](CO)[C@@H](O)[C@@H](O)[C@@H]1O [20β, D-altroside] | 0.62 µM | 0.9 µM | 1.1 µM | 1.1 µM | 1.2 µM | 0.9 µM | 1.1 µM | 0.35 µM | 0.54 µM | 1.5 µM |  |
| CON(C1CCC2(C)C(CCC3C2CCC2(C)C(C4=CC(=O)OC4)CCC32O)C1)C1OC(CO)C(O)C(O)C1O [21α, L-galactoside] | > 25 µM | > 25 µM | > 25 µM | > 25 µM | > 25 µM | > 25 µM | > 25 µM | > 25 µM | > 25 µM | > 25 µM |  |
| CON([C@H]1CC[C@@]2(C)[C@H](CC[C@@H]3[C@@H]2CC[C@]2(C)[C@@H](C4=CC(=O)OC4)CC[C@]32O)C1)[C@H]1O[C@@H](CO)[C@@H](O)[C@@H](O)[C@@H]1O [21β, L-galactoside] | 2.6 µM | 1.6 µM | 1.4 µM | 1.6 µM | 2.1 µM | 1 µM | 2.1 µM | 1.3 µM | 0.9 µM | 1.8 µM |  |
| CON(C1CCC2(C)C(CCC3C2CCC2(C)C(C4=CC(=O)OC4)CCC32O)C1)C1OC(CO)C(O)C(O)C1O [22α, D-galactoside] | > 25 µM | > 25 µM | > 25 µM | > 25 µM | > 25 µM | > 25 µM | > 25 µM | > 25 µM | > 25 µM | > 25 µM |  |
| CON([C@H]1CC[C@@]2(C)[C@H](CC[C@@H]3[C@@H]2CC[C@]2(C)[C@@H](C4=CC(=O)OC4)CC[C@]32O)C1)[C@@H]1O[C@H](CO)[C@H](O)[C@H](O)[C@H]1O [22β, D-galactoside] | 1.6 µM | 0.8 µM | 1.2 µM | 1.5 µM | 1.5 µM | 1.5 µM | 1.8 µM | 0.6 µM | 0.97 µM | 3 µM |  |
| CON([C@H]1CC[C@@]2(C)[C@H](CC[C@@H]3[C@@H]2CC[C@]2(C)[C@@H](C4=CC(=O)OC4)CC[C@]32O)C1)[C@@H]1OC[C@@H](O)[C@H](O)[C@H]1O [24β, D-xyloside] | 1.8 µM | 0.54 µM | 2.1 µM | 1.8 µM | 0.82 µM | 0.9 µM | 1.8 µM | 1.2 µM | 1.1 µM | 1.8 µM |  |
| CON(C1CCC2(C)C(CCC3C2CCC2(C)C(C4=CC(=O)OC4)CCC32O)C1)C1OC(CO)C(O)C(O)C1O [25α, D-guloside] | > 25 µM | > 25 µM | > 25 µM | > 25 µM | > 25 µM |  | > 25 µM | > 25 µM | > 25 µM | > 25 µM | > 25 µM |
| CON([C@H]1CC[C@@]2(C)[C@H](CC[C@@H]3[C@@H]2CC[C@]2(C)[C@@H](C4=CC(=O)OC4)CC[C@]32O)C1)[C@@H]1O[C@H](CO)[C@H](O)[C@@H](O)[C@H]1O [25β, D-guloside] | 2.6 µM | 1.1 µM | 2 µM | 2.2 µM | 5.7 µM | 1.8 µM | 2.1 µM | 1.9 µM | 2 µM | 0.9 µM |  |
| CON(C1CCC2(C)C(CCC3C2CCC2(C)C(C4=CC(=O)OC4)CCC32O)C1)C1OC(CO)C(O)C(O)C1O [26α, L-mannoside] | > 25 µM | > 25 µM | > 25 µM | > 25 µM | > 25 µM |  | > 25 µM | > 25 µM | > 25 µM | > 25 µM | > 25 µM |
| CON([C@H]1CC[C@@]2(C)[C@H](CC[C@@H]3[C@@H]2CC[C@]2(C)[C@@H](C4=CC(=O)OC4)CC[C@]32O)C1)[C@H]1O[C@@H](CO)[C@H](O)[C@@H](O)[C@H]1O [26β, L-mannoside] | 1.6 µM | 4.8 µM | 2.1 µM | 3.1 µM | 2 µM | 1.3 µM | 4.2 µM | 2 µM | 1.7 µM | 3 µM |  |
| CON(C1CCC2(C)C(CCC3C2CCC2(C)C(C4=CC(=O)OC4)CCC32O)C1)C1OC(CO)C(O)C(O)C1O [27α, D-mannoside] | > 25 µM | > 25 µM | > 25 µM | > 25 µM | > 25 µM |  | > 25 µM | > 25 µM | > 25 µM | > 25 µM | > 25 µM |
| CON(C1CCC2(C)C(CCC3C2CCC2(C)C(C4=CC(=O)OC4)CCC32O)C1)C1OC(CO)C(O)C(O)C1O [28α, L-idoside] | > 25 µM | > 25 µM | > 25 µM | > 25 µM | > 25 µM |  | > 25 µM | > 25 µM | > 25 µM | > 25 µM | > 25 µM |
| CON([C@H]1CC[C@@]2(C)[C@H](CC[C@@H]3[C@@H]2CC[C@]2(C)[C@@H](C4=CC(=O)OC4)CC[C@]32O)C1)[C@H]1O[C@@H](CO)[C@@H](O)[C@H](O)[C@H]1O [28β, L-idoside] | 1.3 µM | 0.61 µM | 2.1 µM | 2.4 µM | 1.9 µM | 1.8 µM | 3.2 µM | 1 µM | 1.14 µM | 2.6 µM |  |
